The test system of series [1] is alternate splicing of MCL1 and BCL-X in CLL-B cells. As to the kind of experiment: RT-PCR analysis of alternate splicing (AS). The class given is cell-based, human (CLL patients). As to conditions: for alternate splicing (AS) events: H2A as unspliced loading control.
The subject of the next series is primary CLL-B cells. As to the kind of experiment: In vitro cytotoxicity, specific induced apoptosis (% SIA), flow cytometry. The format is cell-based, human (CLL patients). Conditions: for IC50: 48 h. From the text: Peripheral blood mononuclear cells (PBMC) from CLL patients were obtained from the CLL Research Consortium (CRC) tissue bank. This protocol was approved by the institutional review board (IRB) of the University of California, San Diego. Blood samples were taken from two CLL patients after written informed consent for blood sample collection and confirmation of diagnosis for CLL diseases, The PBMCs were separated from heparinized venous blood by density gradient centrifugation using Ficoll-Hypaque media (GE Healthcare). The samples with >95% positively for leukemic B cells was confirmed by staining for CD5 and CD19 followed by assessment using flow cytometry. CLL-B cells were maintained in RPMI 1640 medium supplemented with 10% FBS, 2 mM L-glutamine, and 100 U/mL of penicillin and 100 μg/mL of streptomycin at 37° C. in an atmosphere containing 5% CO2.
The CLL-B cells (3×10^5 cells) were treated for 48 h with 10, 100, 300, and 1000 nM of 1a, 1b, 2 or 19 at 37° C. in an atmosphere containing 5% CO2. Fludarabine (F-ara-A) dosed at 10 μM was used as a control. The cells were centrifuged and labeled with CD19/CD5/DiOC6 and subjected to flow cytometry. The data was analyzed using FlowJo software. […] The dose-response curves were plotted to determine IC50 values using the GraphPad Prism version 6.0c software.

Series [2] concerns intron retention in DNAJB1, ARF4, PRPF4, RIOK3, SF3A1, and U2AF2 in primary CLL-B cells. As to the kind of experiment: RT-PCR / qRT-PCR analysis of intron retention (IR). The format is cell-based. As to conditions: six genes, 4 h treatment, RNU6A and GAPDH as controls. As to the method: CLL-B (5×10^6 cells/well) were treated with a given dose of compound from a DMSO stock solution over 4 h. RNA isolation and cDNA preparation, PCR reaction was performed in 20 μL of reaction volume as described previously.^S3 PCR conditions give by incubation at 94° C. for 3 min; 35 cycles of 94° C. for 30 s, 55-60° C. (annealing temperature: 55° C. for GAPDH, 53.6° C. for RNU6A, 58° C. for DNAJB1, 54° C. for SF3A1, 55° C. for PRPF4, 55° C. for ARF4, and 55° C. for U2AF2) for 30 s, and 72° C. for 1 min; followed by 72° C. for 5 min. PCR products were separated on a 2% agarose gel and stained with ethidium bromide.
cDNA was prepared using identical methods as used for RT-PCR analysis. The amount of unspliced RNA for different genes was determined using Power SYBR Green PCR master mix (Applied Biosystems) by qRT-PCR using specific primers designed for detection of the intron of each gene (Table 2). The qPCR was performed using 5 pM of each primer on 20 ng of the obtained cDNA. PCR conditions were as follows: one cycle of 50° C. for 2 min (UDG Incubation), one cycle of 95° C. for 10 min (UDG Inactivation), followed by 95° C. for 15 sec; 60° C. for 30 s for 40 cycles and adding a step for dissociation using a 7900 HT Fast Real Time PCR System (Applied Biosystems). Unspliced RNA levels were calculated using 2-ΔΔCT method.^S4 GAPDH was used as a control for normalization.

Series [3] in a line: Solubility by capillary NMR with solvent 13C-satellites (QSCS). The class given is physicochemical. From the text:
(§1) Early studies indicate that 2 was more soluble and stable in aqueous buffers than FD-895 (1a).

Series [4] in a line: Stability in aqueous buffer by NMR monitoring. The format is physicochemical. Conditions: after 744 h (1 month), D2O/DMSO-d6 (10:1) at 37° C.
Text: as §1

Where [5] appears, read: primary CLL-B cells from two CLL patients.

This note sets out measurements from US11203588B2, “Anti-cancer and splice modulating compounds and methods” (The Regents of the University of California, priority 2016, dated 2021).

≈ marks a conversion by molar mass, not a printed value. Bounds are passed on as bounds.

A word on the IC50: it is the concentration needed to halve the response being measured. The low end stands for higher potency, the high end for lower potency. `CC[C@H](OC)[C@@H](C)/C=C/[C@H](O)[C@@H](C)/C=C/C=C(\C)[C@H]1O[C@H](OC)[C@H](OC)[C@@H](OC)[C@@H]1OC` [Alkene 19, (2E,4E,6S,7S,8E,10S,11S)-11-methoxy-6,10-dimethyl-2-((2R,3R,4S,5R,6S)-3,4,5,6-tetramethoxytetrahydro-2H-pyran-2-yl)trideca-2,4,8-trien-7-ol]: in series [1], the “alternate splicing (AS) events” value is recorded as “did not induce AS”. This molecule also registered an IC50 in the series on primary CLL-B cells (Homo sapiens, primary CLL-B cells, both sets of cells) greater than 50000 nM. The “splice modulation via intron retention (IR)” value in series [2] is “inactive for all six genes”.

With `CCC(OC)C(C)C1OC1C(O)C(C)/C=C/C=C(\C)C1OC(=O)CC(O)CCC(C)(O)C(OC(C)=O)/C=C/C1C` (stereo not drawn) [Compound 1a, FD-895, reference compound], the “MCL1 long (anti-apoptotic) and short (pro-apoptotic) isoform expression” value (“MCL1 long (anti-apoptotic) and short” for short) in series [1] was “decrease in the long (anti-apoptotic) form and increased the expression of short (pro-apoptotic) form of MCL1”. Besides, in the series on primary CLL-B cells (setting [5]), the IC50 worked out at 54.1 ± 7.5 nM. For the same molecule, the “solubility (soluble up to)” value in series [3] (D2O/DMSO-d6 (10:1) at 23° C.) came out at 15 ± 5 mM (≈ 8.5 mg/mL).

Broadly, the solubility is the dissolved amount per volume that the medium holds. Higher therefore signals a readily soluble substance. Consider `CC[C@H](OC)[C@@H](C)[C@H]1O[C@@H]1[C@H](O)[C@@H](C)/C=C/C=C(\C)[C@H]1O[C@H](OC)[C@H](OC)[C@@H](OC)[C@@H]1OC` [Compound 2, (1R,2S,3E,5E)-1-((2R,3R)-3-((2R,3S)-3-methoxypentan-2-yl)oxiran-2-yl)-2-methyl-6-((2R,3R,4S,5R,6S)-3,4,5,6-tetramethoxytetrahydro-2H-pyran-2-yl)hepta-3,5-dien-1-ol], for which, in series [1], the “MCL1 long (anti-apoptotic) and short” value was “decrease in the long (anti-apoptotic) form and increased the expression of short (pro-apoptotic) form of MCL1”; the “alternate splicing (AS) events” value is listed as “induced alternate splicing (AS) events”. The molecule further registered an IC50 with primary CLL-B cells (Homo sapiens, primary CLL-B cells from two CLL patients) of 153 ± 11.8 nM. Further, in the series with primary CLL-B cells (primary CLL-B cells, IC50 based), the “loss of activity when compared to FD-895 (1a)” value was roughly 3 fold. In series [3] (23 °C, aqueous with cosolvent or surfactant or cyclodextrin), this molecule displayed a solubility of 95 ± 5 mM (≈ 44.9 mg/mL). Besides, the “splice modulation via intron retention (IR)” value in series [2] is listed as “complementary splice modulation in all six genes”. The “decomposition (stability)” value in series [4] is “no signs of decomposition”.

Regarding “pladienolide B [Compound 1b, reference compound]”, the “MCL1 long (anti-apoptotic) and short” value in series [1] is “decrease in the long (anti-apoptotic) form and increased the expression of short (pro-apoptotic) form of MCL1”. In addition, in the series with primary CLL-B cells (setting [5]), the midpoint of inhibition, the IC50, lay at 84.4 ± 1.2 nM.
